Values quoted from earlier work in patent US20090196914A1, “LIPOSOMAL L-CARNITINE” (priority 2002, published 2009).

Details: oral drug

In the case of CCC(=O)O[C@H](CC(=O)[O-])C[N+](C)(C)C [Propionyl-L-carnitine], the bioavailability is listed as 15%.
